ChEMBL document CHEMBL3596129, “Osthol and curcumin as inhibitors of human Pgp and multidrug efflux pumps of Staphylococcus aureus: reversing the resistance against frontline antibacterial drugs” (Medchemcomm, 2014)

Key:
CYP2C9 = CYP2C9 (Homo sapiens, UniProt P11712); assay: Inhibition of human CYP2C9 at 10 uM preincubated for 10 mins with cofactor followed by mixture of enzyme-substrate addition by fluorescence assay relative to control; format: ADME
P-gp [1] = assay: Substrate activity at P-gp in human Caco2 cells assessed as efflux ratio of apparent permeability across basolateral to apical side over apical to basolateral side at 10 uM after 90 mins by HPLC with mass spectrometric method; format: ADME, cell-based; details: Caco-2
P-gp [2] = assay: Substrate activity at P-gp in human Caco2 cells assessed as apparent permeability across basolateral to apical side at 10 uM after 90 mins by HPLC with mass spectrometric method; format: ADME, cell-based; details: Caco-2
Staphylococcus aureus [3] = assay: Inhibition of MsrA overexpressed in Staphylococcus aureus K2191 assessed as decrease in erythromycin MIC at 50 uM after 24 hrs by broth checkerboard method relative to control
[4] = biological target: T1, Quinolone resistance protein NorA (Staphylococcus aureus) (UniProt P0A0J7); assay: Inhibition of NorA overexpressed in Staphylococcus aureus SA1199B assessed as decrease in ciprofloxacin MIC at 50 uM after 24 hrs by broth checkerboard method relative to control
T1 sequence (whole entry): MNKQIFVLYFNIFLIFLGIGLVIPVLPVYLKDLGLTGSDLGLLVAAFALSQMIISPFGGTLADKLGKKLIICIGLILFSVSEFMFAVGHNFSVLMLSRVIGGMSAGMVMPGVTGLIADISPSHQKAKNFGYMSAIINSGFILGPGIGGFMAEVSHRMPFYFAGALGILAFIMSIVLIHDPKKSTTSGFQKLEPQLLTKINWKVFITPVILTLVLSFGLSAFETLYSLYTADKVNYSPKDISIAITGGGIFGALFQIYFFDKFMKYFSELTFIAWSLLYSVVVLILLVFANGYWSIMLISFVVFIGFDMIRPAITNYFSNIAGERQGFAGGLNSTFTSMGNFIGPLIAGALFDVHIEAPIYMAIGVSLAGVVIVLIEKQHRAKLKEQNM

Staphylococcus aureus [5] = assay: Inhibition of TetK overexpressed in Staphylococcus aureus K2192 assessed as tetracycline MIC at 50 uM after 24 hrs by broth checkerboard method (reference value: 32 ug/ml)
[6] = biological target: T2, Fluoroquinolone resistance protein (Staphylococcus aureus) (UniProt A0A0C5K5S3); assay: Inhibition of MdeA overexpressed in Staphylococcus aureus Mupr-1 assessed as decrease in mupirocin MIC at 50 uM after 24 hrs by broth checkerboard method relative to control
T2 sequence (whole entry): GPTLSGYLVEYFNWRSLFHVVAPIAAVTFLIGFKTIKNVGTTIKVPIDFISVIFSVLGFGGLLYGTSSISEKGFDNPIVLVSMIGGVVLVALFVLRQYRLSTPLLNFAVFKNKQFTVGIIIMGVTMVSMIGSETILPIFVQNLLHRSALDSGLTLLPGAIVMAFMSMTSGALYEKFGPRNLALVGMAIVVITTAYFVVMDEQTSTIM

Staphylococcus aureus [7] = assay: Inhibition of MsrA overexpressed in Staphylococcus aureus K2191 assessed as erythromycin MIC at 50 uM after 24 hrs by broth checkerboard method (reference value: 64 ug/ml)
Staphylococcus aureus [8] = assay: Inhibition of TetK overexpressed in Staphylococcus aureus K2192 assessed as decrease in tetracycline MIC at 50 uM after 24 hrs by broth checkerboard method relative to control
[9] = biological target: T2, Fluoroquinolone resistance protein (Staphylococcus aureus); assay: Inhibition of MdeA overexpressed in Staphylococcus aureus Mupr-1 assessed as mupirocin MIC at 50 uM after 24 hrs by broth checkerboard method (reference value: 256 ug/ml)
[10] = biological target: T3, ATP-dependent translocase ABCB1 (Homo sapiens, UniProt P08183); assay: Inhibition of P-gp in human LS180 cells at 50 uM after 90 mins by rhodamine123 cell exclusion method; format: cell-based; details: ls180, 1.5 h
[11] = biological target: T1, Quinolone resistance protein NorA (Staphylococcus aureus); assay: Inhibition of NorA overexpressed in Staphylococcus aureus SA1199B assessed as ciprofloxacin MIC at 50 uM after 24 hrs by broth checkerboard method (reference value: 8 ug/ml)
Staphylococcus aureus [12] = assay: Inhibition of MsrA overexpressed in Staphylococcus aureus K2191 assessed as decrease in erythromycin MIC at 25 uM after 24 hrs by broth checkerboard method relative to control
Staphylococcus aureus [13] = assay: Inhibition of MsrA overexpressed in Staphylococcus aureus K2191 assessed as erythromycin MIC at 25 uM after 24 hrs by broth checkerboard method (reference value: 64 ug/ml)
Staphylococcus aureus [14] = assay: Inhibition of TetK overexpressed in Staphylococcus aureus K2192 assessed as tetracycline MIC at 25 uM after 24 hrs by broth checkerboard method (reference value: 32 ug/ml)
[15] = biological target: T1, Quinolone resistance protein NorA (Staphylococcus aureus); assay: Inhibition of NorA overexpressed in Staphylococcus aureus SA1199B assessed as ciprofloxacin MIC at 25 uM after 24 hrs by broth checkerboard method (reference value: 8 ug/ml)
[16] = biological target: T1, Quinolone resistance protein NorA (Staphylococcus aureus); assay: Inhibition of NorA overexpressed in Staphylococcus aureus SA1199B assessed as decrease in ciprofloxacin MIC at 25 uM after 24 hrs by broth checkerboard method relative to control
[17] = biological target: T2, Fluoroquinolone resistance protein (Staphylococcus aureus); assay: Inhibition of MdeA overexpressed in Staphylococcus aureus Mupr-1 assessed as decrease in mupirocin MIC at 25 uM after 24 hrs by broth checkerboard method relative to control
Staphylococcus aureus [18] = assay: Inhibition of TetK overexpressed in Staphylococcus aureus K2192 assessed as decrease in tetracycline MIC at 25 uM after 24 hrs by broth checkerboard method relative to control
[19] = biological target: T2, Fluoroquinolone resistance protein (Staphylococcus aureus); assay: Inhibition of MdeA overexpressed in Staphylococcus aureus Mupr-1 assessed as mupirocin MIC at 25 uM after 24 hrs by broth checkerboard method (reference value: 256 ug/ml)
[20] = biological target: T3, ATP-dependent translocase ABCB1; assay: Inhibition of P-gp in human LS180 cells after 90 mins by rhodamine123 cell exclusion method; format: cell-based
CYP2D6 = CYP2D6 (Homo sapiens, UniProt P10635); assay: Inhibition of human CYP2D6 at 10 uM preincubated for 10 mins with cofactor followed by mixture of enzyme-substrate addition by fluorescence assay relative to control; format: ADME
Sequence of CYP2D6 (P10635 whole entry): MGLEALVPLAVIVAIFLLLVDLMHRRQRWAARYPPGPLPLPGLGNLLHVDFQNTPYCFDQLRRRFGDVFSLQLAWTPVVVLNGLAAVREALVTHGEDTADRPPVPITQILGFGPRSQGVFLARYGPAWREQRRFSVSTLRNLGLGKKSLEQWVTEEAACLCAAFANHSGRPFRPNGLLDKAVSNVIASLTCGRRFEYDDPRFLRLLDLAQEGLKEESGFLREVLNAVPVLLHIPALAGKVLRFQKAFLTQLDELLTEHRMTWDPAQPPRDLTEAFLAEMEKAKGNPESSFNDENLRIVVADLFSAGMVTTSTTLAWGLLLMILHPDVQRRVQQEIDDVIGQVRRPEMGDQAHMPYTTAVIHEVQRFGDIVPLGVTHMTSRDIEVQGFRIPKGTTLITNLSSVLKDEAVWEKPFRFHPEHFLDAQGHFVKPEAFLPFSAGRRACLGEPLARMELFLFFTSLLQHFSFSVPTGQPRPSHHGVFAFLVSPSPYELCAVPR

CYP3A4 = CYP3A4 (Homo sapiens, UniProt P08684); assay: Inhibition of human CYP3A4 at 10 uM preincubated for 10 mins with cofactor followed by mixture of enzyme-substrate addition by fluorescence assay relative to control; format: ADME
Sequence of CYP3A4 (P08684 whole entry): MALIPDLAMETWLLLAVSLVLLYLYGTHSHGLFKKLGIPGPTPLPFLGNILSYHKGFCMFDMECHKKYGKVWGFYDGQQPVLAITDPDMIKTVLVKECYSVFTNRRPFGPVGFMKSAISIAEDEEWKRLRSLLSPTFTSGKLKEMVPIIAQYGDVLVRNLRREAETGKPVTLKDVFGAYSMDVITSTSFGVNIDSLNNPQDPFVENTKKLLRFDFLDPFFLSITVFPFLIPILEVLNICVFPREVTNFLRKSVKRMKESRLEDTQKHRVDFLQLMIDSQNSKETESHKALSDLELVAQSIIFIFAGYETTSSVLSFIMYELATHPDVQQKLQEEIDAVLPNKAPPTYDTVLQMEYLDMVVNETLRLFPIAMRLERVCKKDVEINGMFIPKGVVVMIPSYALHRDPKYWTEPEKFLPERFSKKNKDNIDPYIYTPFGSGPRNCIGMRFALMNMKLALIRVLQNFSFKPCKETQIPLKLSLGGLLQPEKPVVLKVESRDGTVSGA

Staphylococcus aureus [21] = assay: Inhibition of TetK overexpressed in Staphylococcus aureus K2192 assessed as tetracycline MIC at 12.5 uM after 24 hrs by broth checkerboard method (reference value: 32 ug/ml)
[22] = biological target: T1, Quinolone resistance protein NorA (Staphylococcus aureus); assay: Inhibition of NorA overexpressed in Staphylococcus aureus SA1199B assessed as decrease in ciprofloxacin MIC at 12.5 uM after 24 hrs by broth checkerboard method relative to control
[23] = biological target: T2, Fluoroquinolone resistance protein (Staphylococcus aureus); assay: Inhibition of MdeA overexpressed in Staphylococcus aureus Mupr-1 assessed as decrease in mupirocin MIC at 12.5 uM after 24 hrs by broth checkerboard method relative to control
Staphylococcus aureus [24] = assay: Inhibition of MsrA overexpressed in Staphylococcus aureus K2191 assessed as decrease in erythromycin MIC at 12.5 uM after 24 hrs by broth checkerboard method relative to control
[25] = biological target: T1, Quinolone resistance protein NorA (Staphylococcus aureus); assay: Inhibition of NorA overexpressed in Staphylococcus aureus SA1199B assessed as ciprofloxacin MIC at 12.5 uM after 24 hrs by broth checkerboard method (reference value: 8 ug/ml)
Staphylococcus aureus [26] = assay: Inhibition of MsrA overexpressed in Staphylococcus aureus K2191 assessed as erythromycin MIC at 12.5 uM after 24 hrs by broth checkerboard method (reference value: 64 ug/ml)
[27] = biological target: T2, Fluoroquinolone resistance protein (Staphylococcus aureus); assay: Inhibition of MdeA overexpressed in Staphylococcus aureus Mupr-1 assessed as mupirocin MIC at 12.5 uM after 24 hrs by broth checkerboard method (reference value: 256 ug/ml)
Staphylococcus aureus [28] = assay: Inhibition of TetK overexpressed in Staphylococcus aureus K2192 assessed as decrease in tetracycline MIC at 12.5 uM after 24 hrs by broth checkerboard method relative to control

Sequence of CYP2C9 (P11712 whole entry): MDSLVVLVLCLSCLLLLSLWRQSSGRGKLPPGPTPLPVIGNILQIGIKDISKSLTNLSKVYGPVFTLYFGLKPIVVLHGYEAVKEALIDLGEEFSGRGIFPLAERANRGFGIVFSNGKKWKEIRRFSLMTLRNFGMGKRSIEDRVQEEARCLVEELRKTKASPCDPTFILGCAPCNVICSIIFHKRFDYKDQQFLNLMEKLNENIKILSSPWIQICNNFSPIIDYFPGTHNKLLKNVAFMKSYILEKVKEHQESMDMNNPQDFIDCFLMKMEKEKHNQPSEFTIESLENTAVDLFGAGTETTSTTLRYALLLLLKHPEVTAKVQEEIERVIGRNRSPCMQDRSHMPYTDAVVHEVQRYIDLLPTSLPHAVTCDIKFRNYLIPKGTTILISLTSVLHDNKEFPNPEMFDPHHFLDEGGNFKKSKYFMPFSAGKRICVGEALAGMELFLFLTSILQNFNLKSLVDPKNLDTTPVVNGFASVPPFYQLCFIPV

| Compound | inhibition (INH) [10] | fold change (FC) (Staphylococcus aureus [12]) | MIC (Staphylococcus aureus [13]) [µg/mL] | MIC (Staphylococcus aureus [14]) [µg/mL] | MIC [15] [µg/mL] | fold change (FC) [16] | fold change (FC) [17] | fold change (FC) (Staphylococcus aureus [18]) | MIC [19] [µg/mL] | IC50 [20] [µM] | further results |
| --- | --- | --- | --- | --- | --- | --- | --- | --- | --- | --- | --- |
| Nc1ccc(S(=O)(=O)Nc2ccnn2-c2ccccc2)cc1 [SULFAPHENAZOLE] | – | – | – | – | – | – | – | – | – | – | inhibition at 10 µM (CYP2C9): 93.7% |
| C[C@H]1O[C@@H](O[C@H]2[C@@H](O)C[C@H](O[C@H]3[C@@H](O)C[C@H](O[C@H]4CC[C@@]5(C)[C@H](CC[C@@H]6[C@@H]5C[C@@H](O)[C@]5(C)[C@@H](C7=CC(=O)OC7)CC[C@]65O)C4)O[C@@H]3C)O[C@@H]2C)C[C@H](O)[C@@H]1O [DIGOXIN] | – | – | – | – | – | – | – | – | – | – | efflux ratio at 1.5 h, 10 µM (P-gp [1]): 41.5; Papp B→A at 1.5 h, 10 µM (P-gp [2]): 12.4 ×10⁻⁶ cm/s |
| CCC/C=C1\OC(=O)C2CC3CCC12C1(OC(=O)C2=C1CCCC2)C3CCC (stereo not given) | Not Active | – | – | – | – | – | – | – | – | – | fold change (FC) (Staphylococcus aureus [3]): 0; fold change (FC) [4]: 0; MIC (Staphylococcus aureus [5]): 32 µg/mL; fold change (FC) [6]: 0; MIC (Staphylococcus aureus [7]): 64 µg/mL; fold change (FC) (Staphylococcus aureus [8]): 0; MIC [9]: 256 µg/mL; MIC [11]: 8 µg/mL |
| O=C(/C=C/C=C/c1ccc2c(c1)OCO2)N1CCCCC1 | – | 0 | 64 | 32 | 4 | 2 | 0 | 0 | 256 | – | – |
| CC(C)=CCc1c(O)cc(O)c2ccc(=O)oc12 | Not Active | 0 | 64 | 32 | 4 | 2 | 0 | 0 | 256 | – | – |
| C/C=C(\C)C(=O)OC1c2c(ccc3ccc(=O)oc23)OC(C)(C)C1OC(=O)/C(C)=C/C (stereo not given) | Not Active | 0 | 64 | 32 | 4 | 2 | 0 | 0 | 256 | 16 | – |
| C=CC(C)(C)c1cc2cc3c(cc2oc1=O)OC(C)(C)C=C3 | Not Active | 0 | 64 | 16 | 2 | 4 | 0 | 2 | 256 | 15 | – |
| COc1c2ccoc2c(OCC=C(C)C)c2oc(=O)ccc12 [PHELLOPTERIN] | Not Active | 2 | 32 | 32 | 4 | 2 | 0 | 0 | 256 | 32 | – |
| Fc1ccc([C@@H]2CCNC[C@H]2COc2ccc3c(c2)OCO3)cc1 [PAROXETINE] | – | – | – | – | – | – | – | – | – | – | inhibition at 10 µM (CYP2D6): 96.5% |
| CC(C)=CCc1c(O)ccc2ccc(=O)oc12 [OSTHENOL] | Not Active | – | – | – | – | – | – | – | – | – | fold change (FC) (Staphylococcus aureus [3]): 0; fold change (FC) [4]: 4; MIC (Staphylococcus aureus [5]): 32 µg/mL; fold change (FC) [6]: 0; MIC (Staphylococcus aureus [7]): 64 µg/mL; fold change (FC) (Staphylococcus aureus [8]): 0; MIC [9]: 256 µg/mL; MIC [11]: 2 µg/mL |
| CC(=O)Oc1cc(OC(C)=O)c2ccc(=O)oc2c1CC=C(C)C | Not Active | 4 | 16 | 16 | 4 | 2 | 0 | 2 | 256 | 44 | – |
| CC(=O)N1CCN(c2ccc(OCC3COC(Cn4ccnc4)(c4ccc(Cl)cc4Cl)O3)cc2)CC1 (stereo not given) [KETOCONAZOLE] | – | – | – | – | – | – | – | – | – | – | inhibition at 10 µM (CYP3A4): 95.2% |
| COc1cc(/C=C/C(=O)CC(=O)/C=C/c2ccc(O)c(OC)c2)ccc1O [CURCUMIN] | Not Active | 0 | 64 | 32 | 1 | 8 | 0 | 0 | 256 | 62 | – |
| CC(C)=CCOc1c2occc2cc2ccc(=O)oc12 [PENTOSALEN] | Not Active | 0 | 64 | 32 | 4 | 2 | 2 | 0 | 128 | 28 | – |
| COc1ccc(-c2cc(=O)c3c(OC)c(OC)c(OC)c(OC)c3o2)cc1 [TANGERETIN] | Not Active | – | – | – | – | 2 | – | – | – | – | MIC (Staphylococcus aureus [21]): 32 µg/mL; fold change (FC) [22]: 2; fold change (FC) [23]: 2; fold change (FC) (Staphylococcus aureus [24]): 2; MIC [25]: 4 µg/mL; MIC (Staphylococcus aureus [26]): 32 µg/mL; MIC [27]: 128 µg/mL; fold change (FC) (Staphylococcus aureus [28]): 0 |
| COc1c(C(=O)/C=C(\O)c2ccccc2)ccc2occc12 [PONGAMOL] | Not Active | 0 | 64 | 32 | 4 | 2 | 0 | 0 | 256 | 88 | – |
